Data: US9428758B2 (priority 2011, dated 2016)
pIC50: −log10 of the molar value. “Also recorded” adds a separate entry of the source.

Columns and labels:
BY4743 yeast cells = type: cell-based
Arabidopsis seedlings = system: Arabidopsis seedlings; set-up: species or system Arabidopsis thaliana; conditions: in vivo
[1] = system: mitochondrial membrane potential (ψmito) in BY4743 yeast cells; type: cell-based
yeast cells = conditions: cited from earlier work

C[C@@H]1C[C@@H]([C@H](O)CC2CC(=O)NC(=O)C2)C(=O)[C@@H](C)C1 [cycloheximide]
shift in growth sensitivity relative to cells carrying the vector alone (BY4743 yeast cells): no significant shift in growth sensitivity

O=C(N[C@H](CO)[C@H](O)c1ccc([N+](=O)[O-])cc1)C(Cl)Cl [chloramphenicol]
shift in growth sensitivity relative to cells carrying the vector alone (BY4743 yeast cells): no significant shift in growth sensitivity

COc1ccc(C[C@H]2NC[C@H](O)[C@H]2OC(C)=O)cc1 [anisomycin]
shift in growth sensitivity relative to cells carrying the vector alone (BY4743 yeast cells): no significant shift in growth sensitivity

C/C=C\C(=O)O[C@@H]1C[C@H]2O[C@@H]3C=C(C)C(=O)C[C@]3(C)[C@]1(C)[C@]21CO1 [Tcin, trichothecin]
effect on root growth of the wild type (Arabidopsis seedlings): severely limited root growth; also recorded: severely restricts root initiation and elongation
growth against Tcin (BY4743 yeast cells): increasingly resistant to Tcin
growth against Tcin relative to cells carrying the vector alone (BY4743 yeast cells): more sensitive to Tcin
growth against Tcin relative to cells containing the vector alone (BY4743 yeast cells): provided resistance
change of ψmito with increasing concentrations of Tcin [1]: did not change much
pIC50 (yeast cells): 5.60
